Test results: ChEMBL document CHEMBL1148695, “Synthesis and biological activity of nociceptin/orphanin FQ analogues substituted in position 7 or 11 with Calpha,alpha-dialkylated amino acids” (Bioorg Med Chem, 2007)
Several values for one entry are separate records, joined by “and”; a condition that tells them apart may be missing. Identical values can stand only once. Activity calls are given as the source filed them. The calls are words filed in the database; no cut-off is given here.

Key:
Assay type in all cases: functional, tissue-based
[1] = target: Nociceptin receptor (Mus musculus) (UniProt P35377); assay: (§1) Agonist activity at NOP receptor in Swiss mouse vas deferens assessed as effect on electrically stimulated contractions
Nociceptin receptor = Nociceptin receptor (Mus musculus, UniProt P35377); assay: as §1
[2] = target: Nociceptin receptor (Cavia porcellus) (UniProt P47748); assay: Agonist activity at NOP receptor in Albino guinea pig ileum assessed as effect on electrically stimulated contractions
[3] = target: Nociceptin receptor (Mus musculus) (UniProt P35377); assay: Agonist activity at NOP receptor in Swiss mouse vas deferens by [35S]GTP-gamma-S binding assay

Nociceptin receptor, sequence (P35377 whole entry): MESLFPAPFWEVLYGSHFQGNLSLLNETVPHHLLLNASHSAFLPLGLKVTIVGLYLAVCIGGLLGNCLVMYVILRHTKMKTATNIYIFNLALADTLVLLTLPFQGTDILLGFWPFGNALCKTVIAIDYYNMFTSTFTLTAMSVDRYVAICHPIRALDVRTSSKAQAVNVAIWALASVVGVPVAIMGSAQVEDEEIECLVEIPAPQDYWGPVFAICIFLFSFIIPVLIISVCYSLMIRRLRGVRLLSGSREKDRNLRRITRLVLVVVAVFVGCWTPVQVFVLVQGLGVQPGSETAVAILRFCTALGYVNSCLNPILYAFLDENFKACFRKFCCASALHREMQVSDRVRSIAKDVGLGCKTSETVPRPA
Nociceptin receptor (Mus musculus), sequence (P35377 whole entry): as above
Nociceptin receptor (Cavia porcellus), sequence (P47748 whole entry): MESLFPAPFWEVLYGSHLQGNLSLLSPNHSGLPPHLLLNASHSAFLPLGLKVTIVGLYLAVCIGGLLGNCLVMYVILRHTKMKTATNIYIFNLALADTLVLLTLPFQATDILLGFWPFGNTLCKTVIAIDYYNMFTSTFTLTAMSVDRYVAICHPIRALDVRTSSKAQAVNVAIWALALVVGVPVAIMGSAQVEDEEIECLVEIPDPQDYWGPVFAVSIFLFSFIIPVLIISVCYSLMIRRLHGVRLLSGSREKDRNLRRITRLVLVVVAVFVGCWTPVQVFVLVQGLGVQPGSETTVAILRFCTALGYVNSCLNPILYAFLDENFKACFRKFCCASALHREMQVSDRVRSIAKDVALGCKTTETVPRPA

With `CCC(C)(NC(=O)[C@H](CO)NC(=O)[C@H](CCCCN)NC(=O)[C@H](CCCNC(=N)N)NC(=O)[C@H](C)NC(=O)CNC(=O)[C@@H](NC(=O)[C@H](Cc1ccccc1)NC(=O)CNC(=O)CNC(=O)[C@@H](N)Cc1ccccc1)[C@@H](C)O)C(=O)N[C@@H](CCCNC(=N)N)C(=O)N[C@@H](CCCCN)C(=O)N[C@@H](CC(C)C)C(=O)N[C@@H](C)C(=O)N[C@@H](CC(N)=O)C(=O)N[C@@H](CCC(N)=O)C(N)=O` (stereo not given in full) as the compound, how does the Emax [1] read?
Its Emax is 90%.

What does the source list for `CC(C)C[C@H](NC(=O)[C@H](CCCCN)NC(=O)[C@H](CCCNC(=N)N)NC(=O)[C@H](C)NC(=O)[C@H](CO)NC(=O)[C@H](CCCCN)NC(=O)[C@H](CCCNC(=N)N)NC(=O)C1(NC(=O)CNC(=O)[C@@H](NC(=O)[C@H](Cc2ccccc2)NC(=O)CNC(=O)CNC(=O)[C@@H](N)Cc2ccccc2)[C@@H](C)O)CC1)C(=O)N[C@@H](C)C(=O)N[C@@H](CC(N)=O)C(=O)N[C@@H](CCC(N)=O)C(N)=O`?
Emax [1]: 7.08%; EC50 (Nociceptin receptor): 83.2 nM

For `CC(C)C[C@H](NC(=O)[C@H](CCCCN)NC(=O)[C@H](CCCNC(=N)N)NC(=O)[C@H](C)NC(=O)[C@H](CO)NC(=O)[C@H](CCCCN)NC(=O)[C@H](CCCNC(=N)N)NC(=O)C(C)(CC(C)C)NC(=O)CNC(=O)[C@@H](NC(=O)[C@H](Cc1ccccc1)NC(=O)CNC(=O)CNC(=O)[C@@H](N)Cc1ccccc1)[C@H](C)O)C(=O)N[C@@H](C)C(=O)N[C@@H](CC(N)=O)C(=O)N[C@@H](CCC(N)=O)C(N)=O` (stereo not given in full), which Emax [1] is on record?
The Emax was 84% and 95%.

What does the source list for `CC(C)C[C@H](NC(=O)[C@H](CCCCN)NC(=O)[C@H](CCCNC(=N)N)NC(=O)[C@H](C)NC(=O)[C@H](CO)NC(=O)[C@H](CCCCN)NC(=O)[C@H](CCCNC(=N)N)NC(=O)C1(NC(=O)CNC(=O)[C@@H](NC(=O)[C@H](Cc2ccccc2)NC(=O)CNC(=O)CNC(=O)[C@@H](N)Cc2ccccc2)[C@@H](C)O)CCCCC1)C(=O)N[C@@H](C)C(=O)N[C@@H](CC(N)=O)C(=O)N[C@@H](CCC(N)=O)C(N)=O`?
Emax [1]: 87%; EC50 (Nociceptin receptor): 63.1 nM

For `CC(C)C[C@H](NC(=O)[C@H](CCCCN)NC(=O)[C@H](CCCNC(=N)N)NC(=O)C1(NC(=O)[C@H](CO)NC(=O)[C@H](CCCCN)NC(=O)[C@H](CCCNC(=N)N)NC(=O)[C@H](C)NC(=O)CNC(=O)[C@@H](NC(=O)[C@H](Cc2ccccc2)NC(=O)CNC(=O)CNC(=O)[C@@H](N)Cc2ccccc2)[C@@H](C)O)CCCCC1)C(=O)N[C@@H](C)C(=O)N[C@@H](CC(N)=O)C(=O)N[C@@H](CCC(N)=O)C(N)=O`, which Emax [1] is on record?
The Emax was 89%.

What about the EC50 (Nociceptin receptor) of the same compound?
The EC50 was 16.2 nM.

Which Emax [2] does the source give for `CC(C)C[C@H](NC(=O)[C@H](CCCCN)NC(=O)[C@H](CCCNC(=N)N)NC(=O)[C@H](C)NC(=O)[C@H](CO)NC(=O)[C@H](CCCCN)NC(=O)[C@H](CCCNC(=N)N)NC(=O)[C@H](C)NC(=O)CNC(=O)[C@@H](NC(=O)[C@H](Cc1ccccc1)NC(=O)CNC(=O)CNC(=O)[C@@H](N)Cc1ccccc1)[C@@H](C)O)C(=O)N[C@@H](C)C(=O)N[C@@H](CC(N)=O)C(=O)N[C@@H](CCC(N)=O)C(=O)O` here?
Its Emax is 45%.

What about the Emax [3] of the same compound?
Its Emax is 87%.

`C[C@H](NC(=O)[C@H](CO)NC(=O)[C@H](CCCCN)NC(=O)[C@H](CCCNC(=N)N)NC(=O)C(C)(C)NC(=O)CNC(=O)[C@@H](NC(=O)[C@H](Cc1ccccc1)NC(=O)CNC(=O)CNC(=O)[C@@H](N)Cc1ccccc1)[C@@H](C)O)C(=O)N[C@@H](CCCNC(=N)N)C(=O)N[C@@H](CCCCN)C(=O)N[C@@H](CCCNC(=N)N)C(=O)N[C@@H](CCCCN)C(=O)N[C@@H](CC(N)=O)C(=O)N[C@@H](CCC(N)=O)C(N)=O` was tested. Which Activity [2] did it give?
Its Activity is “inactive”.

And the Activity [3]?
The Activity was “inactive”.

Which results are given for `CC(C)C[C@H](NC(=O)[C@H](CCCCN)NC(=O)[C@H](CCCNC(=N)N)NC(=O)[C@H](C)NC(=O)[C@H](CO)NC(=O)[C@H](CCCCN)NC(=O)[C@H](CCCNC(=N)N)NC(=O)C(C)(C)NC(=O)CNC(=O)[C@@H](NC(=O)[C@H](Cc1ccccc1)NC(=O)CNC(=O)CNC(=O)[C@@H](N)Cc1ccccc1)[C@@H](C)O)C(=O)N[C@@H](C)C(=O)N[C@@H](CC(N)=O)C(=O)N[C@@H](CCC(N)=O)C(N)=O`?
Emax [1]: 96%; EC50 (Nociceptin receptor): 4.47 nM

`CC(C)C[C@H](NC(=O)[C@H](CCCCN)NC(=O)[C@H](CCCNC(=N)N)NC(=O)[C@H](C)NC(=O)[C@H](CO)NC(=O)[C@H](CCCCN)NC(=O)[C@H](CCCNC(=N)N)NC(=O)C(C)(NC(=O)CNC(=O)[C@@H](NC(=O)[C@H](Cc1ccccc1)NC(=O)CNC(=O)CNC(=O)[C@@H](N)Cc1ccccc1)[C@H](C)O)C(C)C)C(=O)N[C@@H](C)C(=O)N[C@@H](CC(N)=O)C(=O)N[C@@H](CCC(N)=O)C(N)=O` (stereo not given in full) was tested. Which Emax [1] did it give?
The Emax was 88% and 95%.

Which Emax [1] does the source give for `CCC(CC)(NC(=O)[C@H](CO)NC(=O)[C@H](CCCCN)NC(=O)[C@H](CCCNC(=N)N)NC(=O)[C@H](C)NC(=O)CNC(=O)[C@@H](NC(=O)[C@H](Cc1ccccc1)NC(=O)CNC(=O)CNC(=O)[C@@H](N)Cc1ccccc1)[C@@H](C)O)C(=O)N[C@@H](CCCNC(=N)N)C(=O)N[C@@H](CCCCN)C(=O)N[C@@H](CC(C)C)C(=O)N[C@@H](C)C(=O)N[C@@H](CC(N)=O)C(=O)N[C@@H](CCC(N)=O)C(N)=O` here?
The Emax was 87%.

What about the EC50 (Nociceptin receptor) of the same compound?
Its EC50 is 17.8 nM.

For `CC[C@](C)(NC(=O)CNC(=O)[C@@H](NC(=O)[C@H](Cc1ccccc1)NC(=O)CNC(=O)CNC(=O)[C@@H](N)Cc1ccccc1)[C@@H](C)O)C(=O)N[C@@H](CCCNC(=N)N)C(=O)N[C@@H](CCCCN)C(=O)N[C@@H](CO)C(=O)N[C@@H](C)C(=O)N[C@@H](CCCNC(=N)N)C(=O)N[C@@H](CCCCN)C(=O)N[C@@H](CC(C)C)C(=O)N[C@@H](C)C(=O)N[C@@H](CC(N)=O)C(=O)N[C@@H](CCC(N)=O)C(N)=O`, which Emax [1] is on record?
Its Emax is 91% and 88%.

`CC(C)C[C@H](NC(=O)[C@H](CCCCN)NC(=O)[C@H](CCCNC(=N)N)NC(=O)C1(NC(=O)[C@H](CO)NC(=O)[C@H](CCCCN)NC(=O)[C@H](CCCNC(=N)N)NC(=O)[C@H](C)NC(=O)CNC(=O)[C@@H](NC(=O)[C@H](Cc2ccccc2)NC(=O)CNC(=O)CNC(=O)[C@@H](N)Cc2ccccc2)[C@@H](C)O)CCCC1)C(=O)N[C@@H](C)C(=O)N[C@@H](CC(N)=O)C(=O)N[C@@H](CCC(N)=O)C(N)=O` was tested. Which Emax [1] did it give?
The Emax was 89%.

What about the EC50 (Nociceptin receptor) of the same compound?
The EC50 was 8.32 nM.

Which results are given for `CCCC(CCC)(NC(=O)[C@H](CO)NC(=O)[C@H](CCCCN)NC(=O)[C@H](CCCNC(=N)N)NC(=O)[C@H](C)NC(=O)CNC(=O)[C@@H](NC(=O)[C@H](Cc1ccccc1)NC(=O)CNC(=O)CNC(=O)[C@@H](N)Cc1ccccc1)[C@@H](C)O)C(=O)N[C@@H](CCCNC(=N)N)C(=O)N[C@@H](CCCCN)C(=O)N[C@@H](CC(C)C)C(=O)N[C@@H](C)C(=O)N[C@@H](CC(N)=O)C(=O)N[C@@H](CCC(N)=O)C(N)=O`?
Emax [1]: 86%; EC50 (Nociceptin receptor): 29.5 nM

Which Emax [1] does the source give for `CCC(CC)(NC(=O)CNC(=O)[C@@H](NC(=O)[C@H](Cc1ccccc1)NC(=O)CNC(=O)CNC(=O)[C@@H](N)Cc1ccccc1)[C@@H](C)O)C(=O)N[C@@H](CCCNC(=N)N)C(=O)N[C@@H](CCCCN)C(=O)N[C@@H](CO)C(=O)N[C@@H](C)C(=O)N[C@@H](CCCNC(=N)N)C(=O)N[C@@H](CCCCN)C(=O)N[C@@H](CC(C)C)C(=O)N[C@@H](C)C(=O)N[C@@H](CC(N)=O)C(=O)N[C@@H](CCC(N)=O)C(N)=O` here?
The Emax was 89%.

And the EC50 (Nociceptin receptor)?
Its EC50 is 12.3 nM.

Which Emax [1] does the source give for `CC(C)C[C@H](NC(=O)[C@H](CCCCN)NC(=O)[C@H](CCCNC(=N)N)NC(=O)C1(NC(=O)[C@H](CO)NC(=O)[C@H](CCCCN)NC(=O)[C@H](CCCNC(=N)N)NC(=O)[C@H](C)NC(=O)CNC(=O)[C@@H](NC(=O)[C@H](Cc2ccccc2)NC(=O)CNC(=O)CNC(=O)[C@@H](N)Cc2ccccc2)[C@@H](C)O)CC1)C(=O)N[C@@H](C)C(=O)N[C@@H](CC(N)=O)C(=O)N[C@@H](CCC(N)=O)C(N)=O` here?
Its Emax is 91%.

And the EC50 (Nociceptin receptor)?
The EC50 was 16.6 nM.

`CCCC(CCC)(NC(=O)CNC(=O)[C@@H](NC(=O)[C@H](Cc1ccccc1)NC(=O)CNC(=O)CNC(=O)[C@@H](N)Cc1ccccc1)[C@@H](C)O)C(=O)N[C@@H](CCCNC(=N)N)C(=O)N[C@@H](CCCCN)C(=O)N[C@@H](CO)C(=O)N[C@@H](C)C(=O)N[C@@H](CCCNC(=N)N)C(=O)N[C@@H](CCCCN)C(=O)N[C@@H](CC(C)C)C(=O)N[C@@H](C)C(=O)N[C@@H](CC(N)=O)C(=O)N[C@@H](CCC(N)=O)C(N)=O` was tested. Which Emax [1] did it give?
The Emax was 91%.

What about the EC50 (Nociceptin receptor) of the same compound?
The EC50 was 12.6 nM.

How did the Emax [1] turn out when `CC(C)C[C@H](NC(=O)[C@H](CCCCN)NC(=O)[C@H](CCCNC(=N)N)NC(=O)C(C)(NC(=O)[C@H](CO)NC(=O)[C@H](CCCCN)NC(=O)[C@H](CCCNC(=N)N)NC(=O)[C@H](C)NC(=O)CNC(=O)[C@@H](NC(=O)[C@H](Cc1ccccc1)NC(=O)CNC(=O)CNC(=O)[C@@H](N)Cc1ccccc1)[C@@H](C)O)C(C)C)C(=O)N[C@@H](C)C(=O)N[C@@H](CC(N)=O)C(=O)N[C@@H](CCC(N)=O)C(N)=O` (stereo not given in full) was run?
Its Emax is 93% and 86%.

What does the source list for `CC(C)C[C@H](NC(=O)[C@H](CCCCN)NC(=O)[C@H](CCCNC(=N)N)NC(=O)C(C)(CC(C)C)NC(=O)[C@H](CO)NC(=O)[C@H](CCCCN)NC(=O)[C@H](CCCNC(=N)N)NC(=O)[C@H](C)NC(=O)CNC(=O)[C@@H](NC(=O)[C@H](Cc1ccccc1)NC(=O)CNC(=O)CNC(=O)[C@@H](N)Cc1ccccc1)[C@@H](C)O)C(=O)N[C@@H](C)C(=O)N[C@@H](CC(N)=O)C(=O)N[C@@H](CCC(N)=O)C(N)=O` (stereo not given in full)?
Emax [1]: 91%; EC50 (Nociceptin receptor): 13.5 nM

With `CC(C)C[C@H](NC(=O)[C@H](CCCCN)NC(=O)[C@H](CCCNC(=N)N)NC(=O)C(C)(C)NC(=O)[C@H](CO)NC(=O)[C@H](CCCCN)NC(=O)[C@H](CCCNC(=N)N)NC(=O)[C@H](C)NC(=O)CNC(=O)[C@@H](NC(=O)[C@H](Cc1ccccc1)NC(=O)CNC(=O)CNC(=O)[C@@H](N)Cc1ccccc1)[C@@H](C)O)C(=O)N[C@@H](C)C(=O)N[C@@H](CC(N)=O)C(=O)N[C@@H](CCC(N)=O)C(N)=O` as the compound, how does the Emax [1] read?
Its Emax is 91%.

And the EC50 (Nociceptin receptor)?
Its EC50 is 8.91 nM.

Which Emax [1] does the source give for `CC(C)C[C@H](NC(=O)[C@H](CCCCN)NC(=O)[C@H](CCCNC(=N)N)NC(=O)[C@H](C)NC(=O)[C@H](CO)NC(=O)[C@H](CCCCN)NC(=O)[C@H](CCCNC(=N)N)NC(=O)C1(NC(=O)CNC(=O)[C@@H](NC(=O)[C@H](Cc2ccccc2)NC(=O)CNC(=O)CNC(=O)[C@@H](N)Cc2ccccc2)[C@@H](C)O)CCCC1)C(=O)N[C@@H](C)C(=O)N[C@@H](CC(N)=O)C(=O)N[C@@H](CCC(N)=O)C(N)=O` here?
Its Emax is 98%.

What about the EC50 (Nociceptin receptor) of the same compound?
Its EC50 is 25.1 nM.
